System: Bovine cardiac myofibrils
Test: In vitro model of dose-dependent myofibril ATPase modulation (AC1.4, pyruvate kinase/lactate dehydrogenase-coupled ATPase assay at pCa25)
Type: biochemical
Settings: concentration at which ATPase activity was 1.4-fold higher than the bottom of the dose curve, mean of a minimum of two independent tests
In short: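 Detergent-skinned bovine cardiac myofibrils (typically 0.25-1.0 mg/ml) in Ca-buffered (EGTA/CaCl2) PK/LDH-coupled ATPase assay: 12 mM K-PIPES pH 6.80, 2 mM MgCl2, 1 mM ATP, 1 mM DTT, 0.5 mM NADH, 1.5 mM PEP. Hydrolysis followed at 340 nm; dose response fit to 4-parameter equation; AC1.4 is mean of ≥2 tests.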

| SMILES | AC1.4 |
| --- | --- |
| O=C(N[C@@H](c1ccc(C(F)(F)F)c(F)c1)C1CC1)[C@H]1C[C@H]2C[C@H]2N1C(=O)c1ccnc(S(=O)(=O)C2CC2)c1 [Example 686, (1R,3R,5R)-N-((R)-cyclopropyl(3-fluoro-4-(trifluoromethyl)phenyl)methyl)-2-((2-(cyclopropylsulfonyl)-4-pyridinyl)carbonyl)-2-azabicyclo[3.1.0]hexane-3-carboxamide] | 5.284 µM |
| COc1cccc(CNC(=O)[C@H]2CCCN2C(=O)[C@H]2CCCN(S(=O)(=O)N3CC(C#N)C3)C2)c1Cl [Example 583, N-(2-chloro-3-methoxybenzyl)-1-(((3S)-1-((3-cyano-1-azetidinyl)sulfonyl)-3-piperidinyl)carbonyl)-D-prolinamide] | 3.3715 µM |
| O=C(N[C@@H](c1cc(F)c(C(F)(F)F)cc1F)C1CC1)[C@H]1C[C@H]2C[C@H]2N1C(=O)c1cc(C(F)(F)F)ccn1 [Example 289, (1R,3R,5R)-N-((R)-cyclopropyl(2,5-difluoro-4-(trifluoromethyl)phenyl)methyl)-2-((4-(trifluoromethyl)-2-pyridinyl)carbonyl)-2-azabicyclo[3.1.0]hexane-3-carboxamide] | 0.7506 µM |
| COCC(NC(=O)[C@H]1CCCN1C(=O)[C@H]1CCCN(S(=O)(=O)N2CC(C#N)C2)C1)c1ccc(Cl)cc1 (stereo partly drawn) [Example 97, N-(-1-(4-chlorophenyl)-2-methoxyethyl)-1-(((3S)-1-((3-cyano-1-azetidinyl)sulfonyl)-3-piperidinyl)carbonyl)-D-prolinamide] | 0.1466 µM |
| CS(=O)(=O)c1ccc(C(=O)N2[C@@H](C(=O)N[C@@H](c3ccc(C(F)(F)F)cc3F)C3CC3)C[C@H]3C[C@H]32)cn1 [Example 490, (1R,3R,5R)-N-((R)-cyclopropyl(2-fluoro-4-(trifluoromethyl)phenyl)methyl)-2-((6-(methylsulfonyl)-3-pyridinyl)carbonyl)-2-azabicyclo[3.1.0]hexane-3-carboxamide] | 2.1625 µM |
| CC(O)(c1cccc(C(=O)N2CCCC[C@@H]2C(=O)N[C@@H](c2ccc(C(F)(F)F)cc2F)C2CC2)c1)C(F)(F)F (stereo partly drawn) [Example 208, (2R)-N-((R)-cyclopropyl(2-fluoro-4-(trifluoromethyl)phenyl)methyl)-1-(3-(-1,1,1-trifluoro-2-hydroxy-2-propanyl)benzoyl)-2-piperidinecarboxamide] | 0.4457 µM |
| CC1(C)CN(S(=O)(=O)c2cccc(C(=O)N3CCC[C@@H]3C(=O)NCc3ccc(C(F)(F)F)cc3)c2)C1 [Example 234, 1-((3-((3,3-dimethyl-1-azetidinyl)sulfonyl)phenyl)carbonyl)-N-(4-(trifluoromethyl)benzyl)-D-prolinamide] | 0.5321 µM |
| CC[C@H](NC(=O)[C@H]1CCCN1C(=O)c1cccc(S(=O)(=O)N2CC(C#N)C2)c1)c1ccc(C(F)(F)F)cc1F [Example 204, 1-(3-((3-cyano-1-azetidinyl)sulfonyl)benzoyl)-N-((1S)-1-(2-fluoro-4-(trifluoromethyl)phenyl)propyl)-D-prolinamide] | 0.4305 µM |
| O=C(c1ccccc1)c1cccc(C(=O)N2[C@@H](C(=O)N[C@@H](c3cc(F)c(Cl)cc3F)C3CC3)C[C@H]3C[C@H]32)c1 [Example 608, (1R,3R,5R)-2-(3-benzoylbenzoyl)-N-((R)-(4-chloro-2,5-difluorophenyl)(cyclopropyl)methyl)-2-azabicyclo[3.1.0]hexane-3-carboxamide] | 3.7405 µM |
| Cc1ccnc(C(=O)N2[C@@H](C(=O)N[C@@H](c3cc(F)c(Cl)cc3F)C3CC3)C[C@H]3C[C@H]32)c1 [Example 702, (1R,3R,5R)-N-((R)-(4-chloro-2,5-difluorophenyl)(cyclopropyl)methyl)-2-((4-methyl-2-pyridinyl)carbonyl)-2-azabicyclo[3.1.0]hexane-3-carboxamide] | 5.6535 µM |
| COc1ccc(CNC(=O)[C@H]2CCCN2C(=O)[C@H]2CCCN(S(=O)(=O)N3CC(C#N)C3)C2)c(C)c1 [Example 614, 1-(((3S)-1-((3-cyano-1-azetidinyl)sulfonyl)-3-piperidinyl)carbonyl)-N-(4-methoxy-2-methylbenzyl)-D-prolinamide] | 3.8655 µM |
| O=C(N[C@@H](c1ccc(C(F)(F)F)cc1F)C1CC1)[C@H]1CCCN1C(=O)c1cccc(-c2cn[nH]c2)c1 [Example 737, N-((R)-cyclopropyl(2-fluoro-4-(trifluoromethyl)phenyl)methyl)-1-(3-(1H-pyrazol-4-yl)benzoyl)-D-prolinamide] | 7.053 µM |
| CC(C)[C@@H](NC(=O)[C@H]1CCCN1C(=O)c1cccc(S(=O)(=O)N2CC(C#N)C2)c1)c1ccc(C(F)(F)F)cc1F [Example 10, 1-(3-((3-cyano-1-azetidinyl)sulfonyl)benzoyl)-N-((1R)-1-(2-fluoro-4-(trifluoromethyl)phenyl)-2-methylpropyl)-D-prolinamide] | 0.02115 µM |
| O=C(N[C@@H](c1cc(F)c(C(F)(F)F)cc1F)C1CC1)[C@H]1C[C@H]2C[C@H]2N1C(=O)c1cc(C2CC2)ccn1 [Example 593, (1R,3R,5R)-N-((R)-cyclopropyl(2,5-difluoro-4-(trifluoromethyl)phenyl)methyl)-2-((4-cyclopropyl-2-pyridinyl)carbonyl)-2-azabicyclo[3.1.0]hexane-3-carboxamide] | 3.49 µM |
| N#CC1CN(S(=O)(=O)N2CCC[C@H](C(=O)N3CCC[C@@H]3C(=O)NCc3cccc(Cl)c3F)C2)C1 [Example 406, N-(3-chloro-2-fluorobenzyl)-1-(((3S)-1-((3-cyano-1-azetidinyl)sulfonyl)-3-piperidinyl)carbonyl)-D-prolinamide] | 1.4675 µM |
| COc1ccc(F)cc1CNC(=O)[C@H]1CCCN1C(=O)[C@H]1CCCN(S(=O)(=O)N2CC(C#N)C2)C1 [Example 700, (((3S)-1-((3-cyano-1-azetidinyl)sulfonyl)-3-piperidinyl)carbonyl)-N-(5-fluoro-2-methoxybenzyl)-D-prolinamide] | 5.588 µM |

Further lines, results first:

| AC1.4 | SMILES |
| --- | --- |
| 0.0394 µM | N#CC1CN(S(=O)(=O)N2CCC[C@H](C(=O)N3CCC[C@@H]3C(=O)NCc3ccc(C(F)(F)F)c(Cl)c3)C2)C1 [Example 38, N-(3-chloro-4-(trifluoromethyl)benzyl)-1-(((3S)-1-((3-cyano-1-azetidinyl)sulfonyl)-3-piperidinyl)carbonyl)-D-prolinamide] |
| 3.4385 µM | N#C[C@H]1C[C@H](S(=O)(=O)N2CCC[C@H](C(=O)N3CCC[C@@H]3C(=O)NCc3ccc(C(F)(F)F)cc3)C2)C1 [Example 587, 1-(((3S)-1-((trans-3-cyanocyclobutyl)sulfonyl)-3-piperidinyl)carbonyl)-N-(4-(trifluoromethyl)benzyl)-D-prolinamide] |
| 5.5865 µM | O=C(NCc1ccc(C(F)(F)F)cc1)[C@H]1CCCN1C(=O)[C@H]1CCCN(S(=O)(=O)N2CC(Cc3ccc(Cl)cc3)C2)C1 [Example 699, 1-(((3S)-1-((3-(4-chlorobenzyl)-1-azetidinyl)sulfonyl)-3-piperidinyl)carbonyl)-N-(4-(trifluoromethyl)benzyl)-D-prolinamide] |
| 2.036 µM | COC1CCN(S(=O)(=O)c2cccc(C(=O)N3CCC[C@@H]3C(=O)NCc3ccc(C(F)(F)F)cc3)c2)CC1 [Example 474, 1-((3-((4-methoxy-1-piperidinyl)sulfonyl)phenyl)carbonyl)-N-(4-(trifluoromethyl)benzyl)-D-prolinamide] |
| 0.4487 µM | O=C(NCc1ccc(C(F)(F)F)cc1)[C@H]1CCCN1C(=O)[C@H]1CCCN(S(=O)(=O)N2CC(OCc3ccc(Cl)cc3)C2)C1 [Example 210, 1-(((3S)-1-((3-((4-chlorobenzyl)oxy)-1-azetidinyl)sulfonyl)-3-piperidinyl)carbonyl)-N-(4-(trifluoromethyl)benzyl)-D-prolinamide] |
| 0.0335 µM | N#CC1CN(S(=O)(=O)N2CCC[C@H](C(=O)N3CCC[C@@H]3C(=O)NCc3ccc(C(F)(F)F)c(F)c3)C2)C1 [Example 32, 1-(((3S)-1-((3-cyano-1-azetidinyl)sulfonyl)-3-piperidinyl)carbonyl)-N-(3-fluoro-4-(trifluoromethyl)benzyl)-D-prolinamide] |
| 0.1016 µM | N#CC1CN(S(=O)(=O)N2CC(C(=O)N3CCC[C@@H]3C(=O)NCc3ccc(C(F)(F)F)cc3)CC(F)(F)C2)C1 (stereo partly drawn) [Example 77, 1-((-1-((3-cyano-1-azetidinyl)sulfonyl)-5,5-difluoro-3-piperidinyl)carbonyl)-N-(4-(trifluoromethyl)benzyl)-D-prolinamide] |
| 0.2697 µM | N#CC1CN(S(=O)(=O)N2CCC[C@H](C(=O)N3CCC[C@@H]3C(=O)NCc3cc(F)c(F)c(F)c3)C2)C1 [Example 153, 1-(((3S)-1-((3-cyano-1-azetidinyl)sulfonyl)-3-piperidinyl)carbonyl)-N-(3,4,5-trifluorobenzyl)-D-prolinamide] |
| 8.078 µM | CC1CCN1S(=O)(=O)N1CCC[C@H](C(=O)N2CCC[C@@H]2C(=O)NCc2ccc(C(F)(F)F)cc2)C1 (stereo partly drawn) [Example 769, (2R)-1-((3S)-1-((2-methylazetidin-1-yl)sulfonyl)piperidine-3-carbonyl)-N-(4-(trifluoromethyl)benzyl)pyrrolidine-2-carboxamide] |
| 0.6874 µM | C[C@H]1[C@@H](C(=O)N2CCC[C@@H]2C(=O)NCc2ccc(C(F)(F)F)cc2)CCCN1S(=O)(=O)N1CC(C#N)C1 [Example 271, 1-(((2S,3S)-1-((3-cyano-1-azetidinyl)sulfonyl)-2-methyl-3-piperidinyl)carbonyl)-N-(4-(trifluoromethyl)benzyl)-D-prolinamide] |
| 4.669 µM | O=C(NCc1ccc(C(F)(F)F)cc1)[C@H]1CCCN1C(=O)[C@H]1CCCN(S(=O)(=O)C2COC2)C1 [Example 664, 1-(((3S)-1-(3-oxetanylsulfonyl)-3-piperidinyl)carbonyl)-N-(4-(trifluoromethyl)benzyl)-D-prolinamide] |

From US11780826B2 (Amgen Inc., priority 2017, dated 2023)
